Measurements as given in patent publication US20190314353A1, “Pharmaceutical Compositions Comprising Alpelisib” (Novartis AG, priority 2014, published 2019).

Key:
[1] = tested on: advanced solid malignancies carrying an alteration in the PIK3CA gene; assay: Phase I clinical trial, single agent treatment, radiologic response (RECIST 1.0); format: in vivo, human; details: out of 131 patients evaluable for radiologic response, as of Mar. 10, 2014
From the text: (§1) (hereinafter, “Compound I”). […] As of Mar.

[2] = tested on: PIK3CA-mutant or amplified tumor xenograft models; assay: In vivo antitumor activity in tumor xenograft models; details: xenograft models such as breast, head and neck, and ovarian cancers
From the text: as §1

## Cc1nc(NC(=O)N2CCC[C@H]2C(N)=O)sc1-c1ccnc(C(C)(C)C(F)(F)F)c1 [Compound I, (S)-Pyrrolidine-1,2-dicarboxylic acid 2-amide 1-({4-methyl-5-[2-(2,2,2-trifluoro-1,1-dimethyl-ethyl)-pyridin-4-yl]-thiazol-2-yl}-amide)]
[1]; PIK3CA-altered solid tumors
  patients with partial response to treatment: 15 patients
[1]
  patients with stable disease: 68 patients
[2]
  in vivo antitumor activity: dose-dependent antitumor activity
